Measurements from PubChem BioAssay (NCI).
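96-well plates; 48 h exposure; 5 concentrations. Endpoints by linear interpolation between flanking doses. Not reached: highest tested concentration assigned. TGI is the concentration that stops growth completely.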

What was measured:
Assay in all cases: DTP human tumour cell line panel, 48 h
[1] = system: 786-0 renal
[2] = system: CAKI-1 renal
[3] = system: CCRF-CEM leukemia
[4] = system: HS 578T breast
[5] = system: LOX IMVI melanoma
[6] = system: M14 melanoma
[7] = system: MDA-MB-231 breast
[8] = system: NCI-H226 lung
[9] = system: NCI-H522 lung
[10] = system: RPMI-8226 leukemia
[11] = system: SW-620 colon
[12] = system: TK-10 renal
[13] = system: UACC-257 melanoma
[14] = system: SN12C renal

SMILES	TGI [1]	TGI [2]	TGI [3]	TGI [4]	TGI [5]	TGI [6]	TGI [7]	TGI [8]	TGI [9]	TGI [10]	TGI [11]	TGI [12]	TGI [13]	TGI [14]
Cc1cc(OCc2nnc3n2N=C(c2cc(F)c(Cl)cc2Cl)/C(=C/c2ccc(Cl)cc2)S3)ccc1Cl	> 100 µM	49.9 µM	> 100 µM	46.1 µM	50.1 µM	65.5 µM	> 100 µM	> 100 µM	36.4 µM	33.2 µM	38.5 µM	> 100 µM	> 100 µM	
CC(CCC#N)(CCC#N)C(=O)CC(O)(C(F)(F)F)C(F)(F)F	4.72 µM	8.32 µM	7.84 µM	60.6 µM	8.14 µM	4.81 µM	14.2 µM	45.3 µM			6.9 µM	25.1 µM	21.1 µM	23.5 µM
CCCC(O)C(NC(=O)CCl)C(=O)O (stereo unspecified)		> 100 µM	> 100 µM		> 100 µM			> 100 µM	> 100 µM	> 100 µM	> 100 µM		> 100 µM	> 100 µM
COc1cc2c(cc1O)C1C(O)C(O)C=C3CCN(C2)C31 (stereo unspecified)	11.9 µM	10.1 µM	72.6 µM		8.19 µM	4.46 µM		7.07 µM	4.29 µM	11.7 µM	12.6 µM	11.7 µM	12.2 µM	14.6 µM
CC(C)C1=C(Cc2ccccc2)C(=O)O/C1=C\c1cc(Cl)c(O)c(Cl)c1	32.1 µM	29.9 µM	41.5 µM	67.7 µM	34.8 µM	35.6 µM	33.8 µM	39.5 µM		65.6 µM	44.6 µM	55.1 µM	32.2 µM	35.6 µM
O=C(O)c1cccnc1	> 100 µM	> 100 µM	> 100 µM	> 100 µM	> 100 µM	> 100 µM	> 100 µM	> 100 µM	> 100 µM	> 100 µM	> 100 µM	> 100 µM	> 100 µM	> 100 µM
O=C1/C(=C/c2ccccc2)NC(=S)N1CN1CCOCC1	> 100 µM		> 100 µM	> 100 µM	> 100 µM	> 100 µM	> 100 µM	> 100 µM		> 100 µM	> 100 µM	> 100 µM	> 100 µM	> 100 µM
CC(C)(C)[Si](C)(C)OC1/C(=C/C#N)C(n2ccc(=O)[nH]c2=O)OC1CO (stereo unspecified)	> 100 µM	> 100 µM				> 100 µM	> 100 µM		> 100 µM		> 100 µM	> 100 µM		
CC(C)=CCc1c(O)ccc2ccc(=O)oc12		> 100 µM	> 100 µM		> 100 µM			> 100 µM	> 100 µM	> 100 µM	> 100 µM		84 µM	> 100 µM
C#CCN(CC#C)C(=O)C(=O)c1c[nH]c2ccc(OC)cc12	31 µM		43.1 µM	37.6 µM	33.6 µM	34.7 µM	31 µM	38.7 µM		22.4 µM	41.2 µM	34.3 µM	34 µM	30 µM
CC1C[C@]2(C)C(=O)Nc3ccccc3[C@@H]2Nc2ccccc21 (stereo partly specified)	45.2 µM	74.3 µM	63.4 µM	72.9 µM	30.8 µM	55.3 µM	36 µM	76.1 µM		59.5 µM	> 100 µM	58 µM	39.5 µM	37.6 µM
CCOP(=O)(O)C(C)(C)NC	> 100 µM		> 100 µM	> 100 µM	> 100 µM	> 100 µM	> 100 µM	> 100 µM	> 100 µM	> 100 µM	> 100 µM	> 100 µM	> 100 µM	> 100 µM
CCOC(=O)NC1CN2CCC1CC2 (stereo unspecified)	> 100 µM	> 100 µM	> 100 µM	> 100 µM	> 100 µM	> 100 µM	> 100 µM	> 100 µM	> 100 µM	> 100 µM	> 100 µM		> 100 µM	> 100 µM
COc1ccc(C(OC(C)=O)C2C(=C(C#N)C#N)c3ccccc3C2=C(C#N)C#N)cc1 (stereo unspecified)	> 100 µM	> 100 µM	62.6 µM	91.6 µM	> 100 µM	> 100 µM	> 100 µM	> 100 µM	> 100 µM	60.4 µM	> 100 µM	> 100 µM	> 100 µM	
CN1C(=O)C(CC=O)(C(C)(C)C)c2ccccc21 (stereo unspecified)	> 100 µM	> 100 µM	> 100 µM	> 100 µM	> 100 µM	> 100 µM	> 100 µM			> 100 µM	> 100 µM		> 100 µM	> 100 µM
CC#C[P+](c1ccccc1)(c1ccccc1)c1ccccc1	10.7 µM	11.3 µM	3.57 µM		6.75 µM	5.78 µM		14.2 µM	0.924 µM			15.7 µM	9.59 µM	4.13 µM
